Experimental data as given in US9854801B2, “Weed control from applications of an ethylene inhibitor and a pyridine carboxylic acid herbicide” (Dow AgroSciences LLC, priority 2015, dated 2018).
Several values for one entry are separate records, joined by “and”; a condition that tells them apart may be missing. Equal values may be shown once.

How the values were obtained:
Format in all cases: in vivo
Conditions in all cases: 20-21 days after application
[1] = tested on: yellow nutsedge, Cyperus esculentus L. (CYPES); experiment: Foliar-applied greenhouse weed control, yellow nutsedge (CYPES)
Procedure: (§1) The soil matrix was contained in plastic pots with a volume of 1 quart and a surface area of 83.6 cm^2. When required, to ensure good germination and healthy plants, a fungicide treatment and/or other chemical or physical treatment was applied. The plants were grown for 10-22 days in a greenhouse with an approximate 14 h photoperiod which was maintained at about 29° C. during the day and 26° C. during the night. Nutrients (Peters Excel® 15-5-15 5-Ca 2-Mg and iron chelate) were applied in the irrigation solution as needed and water was added on a regular basis. Supplemental lighting was provided with overhead metal halide 1000-Watt lamps as necessary. The plants were employed for testing when they reached the second or third true leaf stage. […] The compounds were applied on an active ingredient basis. […] All stock solutions and applications solutions were visually inspected for compound compatibility prior to application. […] Control plants were sprayed in the same manner with the solvent blank. The treated plants and control plants were placed in a greenhouse as described above and watered by sub-irrigation to prevent wash-off of the test compounds. […] Colby's equation was used to determine the herbicidal effects expected from the mixtures. The combinations tested, ratios employed, plant species tested, and results are included in Table 1 below.

[2] = tested on: ivyleaf morning glory, Ipomoea hederacea (L.) Jacq. (IPOHE); experiment: Foliar-applied greenhouse weed control, ivyleaf morning glory (IPOHE)
Procedure: as §1

[3] = tested on: barnyard grass, Echinochloa crus-galli (L.) P. Beauv. (ECHCG); experiment: Foliar-applied greenhouse weed control, barnyard grass (ECHCG)
Procedure: as §1

[4] = tested on: large crabgrass, Digitaria sanguinalis (L.) Scop. (DIGSA); experiment: Foliar-applied greenhouse weed control, large crabgrass (DIGSA)
Procedure: as §1

[5] = tested on: junglerice, Echinochloa colonum (L.) LINK (ECHCO); experiment: Foliar-applied greenhouse weed control, junglerice (ECHCO)
Procedure: as §1

**Q.** Which “1-methylcyclopropene % Visual Weed Control” value ([1]; 5 g ai/ha alone) does the source give for `CC1=CC1` [1-methylcyclopropene, reference compound] here?
**A.** Its value is 0%.

**Q.** What about the “1-methylcyclopropene % Visual Weed Control” value ([2]; 2 g ai/ha alone) of the same compound?
**A.** Its value is 0%.

**Q.** And the “1-methylcyclopropene % Visual Weed Control” value ([2]; 4 g ai/ha alone)?
**A.** The value was 0%.

**Q.** What about the “1-methylcyclopropene % Visual Weed Control” value ([2]; 5 g ai/ha alone) of the same compound?
**A.** Its value is 0%.

**Q.** And the “1-methylcyclopropene % Visual Weed Control” value ([2]; 10 g ai/ha alone)?
**A.** The value was 0%.

**Q.** And the “1-methylcyclopropene % Visual Weed Control” value ([3]; 2 g ai/ha alone)?
**A.** Its value is 0%.

**Q.** What about the “1-methylcyclopropene % Visual Weed Control” value ([3]; 4 g ai/ha alone) of the same compound?
**A.** Its value is 0%.

**Q.** And the “1-methylcyclopropene % Visual Weed Control” value ([3]; 5 g ai/ha alone)?
**A.** Its value is 0%.

**Q.** What about the “1-methylcyclopropene % Visual Weed Control” value ([3]; 10 g ai/ha alone) of the same compound?
**A.** Its value is 0%.

**Q.** What about the “1-methylcyclopropene % Visual Weed Control” value ([3]; 20 g ai/ha alone) of the same compound?
**A.** Its value is 0%.

**Q.** What about the “1-methylcyclopropene % Visual Weed Control” value ([4]; 2 g ai/ha alone) of the same compound?
**A.** Its value is 0%.

**Q.** And the “1-methylcyclopropene % Visual Weed Control” value ([4]; 4 g ai/ha alone)?
**A.** Its value is 0%.

**Q.** What about the “1-methylcyclopropene % Visual Weed Control” value ([4]; 5 g ai/ha alone) of the same compound?
**A.** Its value is 0%.

**Q.** And the “1-methylcyclopropene % Visual Weed Control” value ([4]; 10 g ai/ha alone)?
**A.** Its value is 0%.

**Q.** What about the “1-methylcyclopropene % Visual Weed Control” value ([4]; 20 g ai/ha alone) of the same compound?
**A.** The value was 0%.

**Q.** And the “1-methylcyclopropene % Visual Weed Control” value ([5]; 2 g ai/ha alone)?
**A.** Its value is 0%.

**Q.** What about the “1-methylcyclopropene % Visual Weed Control” value ([5]; 4 g ai/ha alone) of the same compound?
**A.** Its value is 0%.

**Q.** What does the source list for `COc1c(Cl)ccc(-c2nc(C(=O)OCc3ccccc3)c(Cl)c(N)c2F)c1F` [Formula (II) benzyl ester, benzyl ester of 4-amino-3-chloro-5-fluoro-6-(4-chloro-2-fluoro-3-methoxy-phenyl) pyridine-2-carboxylic acid]?
**A.** Formula (II) benzyl ester % Visual Weed Control ([1]; 8 g ai/ha alone): 70%; Formula (II) benzyl ester % Visual Weed Control ([1]; 16 g ai/ha alone): 88%; Formula (II) benzyl ester % Visual Weed Control ([1]; 32 g ai/ha alone): 73%; Formula (II) benzyl ester % Visual Weed Control ([2]; 16 g ai/ha alone): 18% and 25%; Formula (II) benzyl ester % Visual Weed Control ([2]; 32 g ai/ha alone): 35% and 48%; Formula (II) benzyl ester % Visual Weed Control ([3]; 8 g ai/ha alone): 40% and 63%; Formula (II) benzyl ester % Visual Weed Control ([3]; 16 g ai/ha alone): 63% and 78%; Formula (II) benzyl ester % Visual Weed Control ([3]; 32 g ai/ha alone): 83% and 90%; Formula (II) benzyl ester % Visual Weed Control ([4]; 8 g ai/ha alone): 13% and 20%; Formula (II) benzyl ester % Visual Weed Control ([4]; 16 g ai/ha alone): 23% and 28%; Formula (II) benzyl ester % Visual Weed Control ([4]; 32 g ai/ha alone): 30% and 33%; Formula (II) benzyl ester % Visual Weed Control ([5]; 8 g ai/ha alone): 50%; Formula (II) benzyl ester % Visual Weed Control ([5]; 16 g ai/ha alone): 50%; Formula (II) benzyl ester % Visual Weed Control ([5]; 32 g ai/ha alone): 80%
